Source: patent US20260043061A1, “ENZYMATICALLY MEDIATED REACTIVE CRYSTALLIZATION OF STEVIOL GLYCOSIDES” (Arzeda Corp., priority 2022, published 2026)

Assay: Solubility of select steviol glycosides at room temperature
Format: physicochemical
Conditions: in water, some species may not be completely pure
From the text: Pure steviol glycosides are sparingly soluble in water. Solubility measurements may reflect the true thermodynamic solubility or a short-term kinetic solubility. The kinetic solubility value occurs when an isomeric form has been prepared that is not thermodynamically stable at long time scales yet has higher solubility at short times scales. A few steviol glycoside species have a free carboxylic acid group. These species tend to have higher solubility. Nevertheless, steviol glycosides are generally poorly soluble in water, as shown in Table 3 (certain measurements are for species that may not be completely pure).

| Solubility | Compound |
| --- | --- |
| 0.80% wt % | C=C1C[C@@]23CC[C@H]4[C@@](C)(CCC[C@@]4(C)C(=O)O[C@@H]4O[C@H](CO)[C@@H](O)[C@H](O)[C@H]4O)[C@@H]2CC[C@]1(O[C@@H]1O[C@H](CO)[C@@H](O)[C@H](O[C@@H]2O[C@H](CO)[C@@H](O)[C@H](O)[C@H]2O)[C@H]1O[C@@H]1O[C@H](CO)[C@@H](O)[C@H](O)[C@H]1O)C3 [Reb A 97%, rebaudioside A] |
| 0.80% wt % | C=C1C[C@@]23CC[C@H]4[C@@](C)(CCC[C@@]4(C)C(=O)O[C@@H]4O[C@H](CO)[C@@H](O)[C@H](O)[C@H]4O)[C@@H]2CC[C@]1(O[C@@H]1O[C@H](CO)[C@@H](O)[C@H](O[C@@H]2O[C@H](CO)[C@@H](O)[C@H](O)[C@H]2O)[C@H]1O[C@@H]1O[C@H](CO)[C@@H](O)[C@H](O)[C@H]1O)C3 [Reb A anhydrous, rebaudioside A] |
| 0.10% wt % | C=C1C[C@@]23CC[C@H]4[C@@](C)(CCC[C@@]4(C)C(=O)O[C@@H]4O[C@H](CO)[C@@H](O)[C@H](O)[C@H]4O)[C@@H]2CC[C@]1(O[C@@H]1O[C@H](CO)[C@@H](O)[C@H](O[C@@H]2O[C@H](CO)[C@@H](O)[C@H](O)[C@H]2O)[C@H]1O[C@@H]1O[C@H](CO)[C@@H](O)[C@H](O)[C@H]1O)C3 [Reb A hydrate, rebaudioside A] |
| 0.46% wt % | C=C1C[C@@]23CC[C@H]4[C@@](C)(CCC[C@@]4(C)C(=O)O[C@@H]4O[C@H](CO)[C@@H](O)[C@H](O)[C@H]4O)[C@@H]2CC[C@]1(O[C@@H]1O[C@H](CO)[C@@H](O)[C@H](O[C@@H]2O[C@H](CO)[C@@H](O)[C@H](O)[C@H]2O)[C@H]1O[C@@H]1O[C@H](CO)[C@@H](O)[C@H](O)[C@H]1O)C3 [Reb A, rebaudioside A] |
| 0.10% wt % | C=C1C[C@@]23CC[C@H]4[C@@](C)(CCC[C@@]4(C)C(=O)O[C@@H]4O[C@H](CO)[C@@H](O)[C@H](O)[C@H]4O[C@@H]4O[C@H](CO)[C@@H](O)[C@H](O)[C@H]4O)[C@@H]2CC[C@]1(O[C@@H]1O[C@H](CO)[C@@H](O)[C@H](O[C@@H]2O[C@H](CO)[C@@H](O)[C@H](O)[C@H]2O)[C@H]1O[C@@H]1O[C@H](CO)[C@@H](O)[C@H](O)[C@H]1O)C3 [Reb D, rebaudioside D] |
| 0.05% wt % | C=C1C[C@@]23CC[C@H]4[C@@](C)(CCC[C@@]4(C)C(=O)O[C@@H]4O[C@H](CO)[C@@H](O)[C@H](O[C@@H]5O[C@H](CO)[C@@H](O)[C@H](O)[C@H]5O)[C@H]4O[C@@H]4O[C@H](CO)[C@@H](O)[C@H](O)[C@H]4O)[C@@H]2CC[C@]1(O[C@@H]1O[C@H](CO)[C@@H](O)[C@H](O[C@@H]2O[C@H](CO)[C@@H](O)[C@H](O)[C@H]2O)[C@H]1O[C@@H]1O[C@H](CO)[C@@H](O)[C@H](O)[C@H]1O)C3 [Reb M, rebaudioside M] |
| 0.44% wt % | C=C1C[C@@]23CC[C@H]4[C@@](C)(CCC[C@@]4(C)C(=O)O[C@@H]4O[C@H](CO)[C@@H](O)[C@H](O)[C@H]4O)[C@@H]2CC[C@]1(O[C@@H]1O[C@H](CO)[C@@H](O)[C@H](O)[C@H]1O[C@@H]1O[C@H](CO)[C@@H](O)[C@H](O)[C@H]1O)C3 [Stevioside, stevioside] |
| 0.20% wt % | rebaudioside C [Reb C] |
